Assay results reported in patent US20080132520A1, “COMPOSITIONS, KITS AND METHODS FOR ADMINISTERING A TITRATION SCHEDULE COMPRISING BIFEPRUNOX COMPOUNDS” (priority 2006, published 2008).

How the values were obtained:
[1] = Clinical investigations on bifeprunox mesylate: tolerability; conditions: human, in vivo
dopamine D2/3 receptors = conditions: cited from earlier work
[2] = Rapid titration study: efficacy assessments (PANSS, CGI-S, CGI-I); format: in vivo, human; conditions: short treatment period, titration to 40 mg/day plus 3-day maintenance
Experimental: This study represented a randomized, double-blinded, placebo-controlled, sequential panel, rapid titration study of the safety and tolerability of bifeprunox compounds in subjects with schizophrenia. […] Efficacy assessments (i.e., Positive and Negative Symptoms of Schizophrenia (PANSS) and Clinical Global Impression-Severity (CGI-S) were performed at screening, Day-1 and at the final assessment; Clinical Global Impressions-improvement (CGI-I was performed at the final assessment only. […] The treatment phase lasted approximately two weeks, including follow-up assessment. Subjects remained hospitalized until the post-treatment follow-up assessment was completed or until their condition had clinically stabilized.

[3] = biological target: T1, serotonin 5-HT1A receptors (Homo sapiens, UniProt P08908); conditions: cited from earlier work
T1 sequence (P08908 1-422): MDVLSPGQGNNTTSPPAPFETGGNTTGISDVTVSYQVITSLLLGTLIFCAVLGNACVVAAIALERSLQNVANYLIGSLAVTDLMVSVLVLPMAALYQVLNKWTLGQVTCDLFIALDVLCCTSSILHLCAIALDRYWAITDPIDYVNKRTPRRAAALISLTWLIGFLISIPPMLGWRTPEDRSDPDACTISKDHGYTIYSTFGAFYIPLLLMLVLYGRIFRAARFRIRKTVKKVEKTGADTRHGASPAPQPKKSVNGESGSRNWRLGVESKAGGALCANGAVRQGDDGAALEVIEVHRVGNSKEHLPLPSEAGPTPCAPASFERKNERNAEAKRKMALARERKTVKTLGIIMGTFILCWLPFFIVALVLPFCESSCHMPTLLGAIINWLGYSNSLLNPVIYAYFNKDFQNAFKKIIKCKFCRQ

[4] = Randomized, double-blinded, placebo-controlled, sequential panel, rapid titration study: safety and tolerability; format: in vivo, human
Experimental: This study represented a randomized, double-blinded, placebo-controlled, sequential panel, rapid titration study of the safety and tolerability of bifeprunox compounds in subjects with schizophrenia. In particular, this study assessed the safety, tolerability and efficacy after a rapid titration of bifeprunox to a therapeutic dose of 40 mg/day in schizophrenia and schizoaffective subjects. Eligible subjects were hospitalized at the start of the screening period and entered a single-blind placebo run-in period (day -7 to -1) to assure that the 7-day antipsychotic drug-free criterion was met prior to bifeprunox titration. Subjects then began rapid titration at an initial bifeprunox starting dose of 0.25 mg with a high proposed therapeutic dose of 40 mg/day. Two titration schedules were evaluated in sequential order, with the titration period lasting 6 to 7 days depending on the titration schedule (Day 1 to Day 6 or 7).
Each listed dose in the titration schedule was administered once daily (QD) followed by the next higher dose the following day. […] Only one repeat dose, however, was allowed during the entire titration period. Upon reaching the high proposed dose of 40 mg/day, the subject entered a 3-day maintenance period for this dose. Final assessments were performed on the day after the last maintenance period dose and follow-up assessments were performed 3 days after the last dose of study treatment.
Efficacy assessments (i.e., Positive and Negative Symptoms of Schizophrenia (PANSS) and Clinical Global Impression-Severity (CGI-S) were performed at screening, Day-1 and at the final assessment; Clinical Global Impressions-improvement (CGI-I was performed at the final assessment only. Safety was monitored throughout the study by assessment of physical examination, vital signs, adverse events (AEs), concomitant medications, clinical laboratory assessments, 12-lead electrocardiograms (ECGs), Simpson-Angus Scale (SAS) score and Barnes Akathisia Scale (BAS) score. The treatment phase lasted approximately two weeks, including follow-up assessment. Subjects remained hospitalized until the post-treatment follow-up assessment was completed or until their condition had clinically stabilized.
The study planned to include 20 subjects (10 subjects per panel). Twenty-seven subjects were screened and 18 were randomized (7 to bifeprunox and 1 to placebo in titration schedule 1 and 8 to bifeprunox and 2 to placebo titration schedule 2c). Ten subjects per panel were initially available as planned. Two subjects, however, dropped out of the first panel before the start of the study. As such, the study proceeded with the eighteen subjects.
Males and females between 18-55 years old meeting Diagnostic and Statistical Manual of Mental Disorders, 4th edition, Text Revised (DSM-IV TR) diagnosis of Schizophrenia disorder (295.10, 295.20, 295.30, 295.60 and 295.90) or Schizoaffevtive disorder (295.70).
Bifeprunox were tablets taken orally at a total daily dose of 0.25 mg to 40 mg in the following titration schedules:
Placebo tablets matching the bifeprunox tablets were taken orally using the same dosing regimen as the test product.

Row | Structure (SMILES) | tolerability during clinical investigations [1] | functional activity at dopamine D2/3 receptors (dopamine D2/3 receptors) | benefit over placebo in severity of symptoms of schizophrenia (PANSS total scores, CGI-S and CGI-I scores, responder rate) [2] | functional activity at serotonin 5-HT1A receptors [3] | subjects with TEAEs leading to discontinuation of the study treatment ([4]; titration schedule 1) | subjects with at least 1 TEAE related to study treatment ([4]; titration schedule 1) | subjects with vital sign abnormalities on the same day as relevant AEs (dizziness or orthostatic hypotension) ([4]; titration schedule 1) | tolerability of daily increases to 20 to 40 mg once the 10 mg dose was reached ([4]; titration schedule 1) | subjects reporting at least one treatment emergent adverse event (TEAE) ([4]; titration schedule 1 (0.25, 1, 5, 10, 20, 40 mg QD oral over 6 days), 7 subjects on bifeprunox) | TEAEs at the 20 mg dose level ([4]; titration schedule 1, 20 mg dose level) | subjects reporting TEAEs considered to be severe ([4]; titration schedule 1, severe TEAEs at the 1, 5 and 10 dose levels) | TEAEs of anorexia, gait abnormal NOS or orthostatic hypotension ([4]; titration schedule 2c) | additional subjects requiring re-challenge of a dose level who completed titration up to 40 mg ([4]; titration schedule 2c) | subjects with TEAEs related to the study treatment ([4]; titration schedule 2c) | subjects with vital sign abnormalities same days as AEs of dizziness ([4]; titration schedule 2c) | subjects reporting at least one TEAE ([4]; titration schedule 2c (0.25, 0.5, 2, 5, 10, 20, 40 mg QD oral over 7 days), 8 subjects on bifeprunox) | tolerability of titration from 0.25 mg to 40 mg over 7 days versus over a 6-day period ([4]; titration schedule 2c versus 1) | subjects with TEAE leading to discontinuation of the study treatment ([4]; titration schedule 2c, TEAE of dizziness) | subjects reporting TEAEs considered to be severe ([4]; titration schedule 2c, severe TEAEs at the 2 mg and 5 mg dose level) | effects on BAS, SAS, ECG or clinical laboratory evaluations ([4]; titration schedules 1 and 2c)
1 | CS(=O)(=O)O.O=c1[nH]c2cccc(N3CCN(Cc4cccc(-c5ccccc5)c4)CC3)c2o1 [bifeprunox mesylate, 7-[4-([1,1′-biphenyl]-3-ylmethyl)-1-piperazinyl]-2(3H)-benzoxazolone monomethane-sulfonate] | well tolerated | – | – | – | – | – | – | – | – | – | – | – | – | – | – | – | – | – | – | –
2 | O=c1[nH]c2cccc(N3CCN(Cc4cccc(-c5ccccc5)c4)CC3)c2o1 [bifeprunox, 7-[4-([1,1′-biphenyl]-3-ylmethyl)-1-piperazinyl]-2(3H)-benzoxa-zolone] | – | partial agonist | little benefit | partial agonist | Three subjects | All subjects | Two subjects | well-tolerated | All subjects | No TEAEs occurred | Three subjects | no TEAEs | Two additional subjects | Six out of 8 | Four subjects | All subjects | better tolerated | One subject | Three subjects | Neither titration schedule of bifeprunox appeared to have any effects
